{"source": "patent US6548488B2", "about": "“Composition comprising camptothecin or a camptothecin derivative and an alkylating agent for the treatment of cancer” (priority 2000, dated 2003)", "key": {"[1]": {"tested_on": "MA16/C, sc", "method": "(§1) This efficacy may be quantified, for example by the log10 cell kill, which is determined by the following formula:\n(§2) log10 cell kill=T-C(days)/3.32×Td\n(§3) in which T-C represents the time taken for the cells to grow, which is the mean time in days for the tumors of the treated group (T) to reach a predetermined value (1 g for example) and the tumors of the control group (C) to reach the same value, and Td represents the time in days needed for the volume of the tumor in the control group to double (T. H. Corbett et al., Cancer, 40: 2660-2680 (1977); F. M. Schabel et al., Cancer Drug Development, Part B, Methods in Cancer Research, 17: 3-51, New York, Academic Press Inc. (1979)). A product is considered to be active if the log10 cell kill is greater than or equal to 0.7. A product is considered to be very active if the log10 cell kill is greater than 2.8.\nThe effectiveness of irinotecan combination chemotherapy methods were tested in a dose response study in a murine tumor model. Three arms were evaluated for tolerance and efficacy. Tolerance was measured by mortality, body weight loss at nadir, host recovery time, and combination toxicity index. Efficacy end points for solid tumor models were tumor growth delay (T/C), log10 cell kill (LCK, defined above), tumor regressions (i.e., complete remission (CR),or partial remission (PR)). For non-solid tumors, such as leukemia, efficacy was measured as the increase in life span (ILS).\nCombination toxicity index (CTI) was calculated as the sum of the fraction of LD10's for each agent used in each combination (Cancer Treatment Reports, 66(5): 1187-1200 (1982)). The LD10 for the single agent was obtained by plotting the toxicity of that agent and the dosage in mg/kg as a log probit graph. Subsequently, the CTI LD10 was obtained by plotting as a log probit graph the observed lethality and the corresponding CTI calculated as the sum of the fraction of the LD10 of each single agent. When the CTI equals one, only 50% of the LD10's of each agent can be used in combination without additional toxicity, and when the CTI equals two, 100% of the LD10's of each agent can be used in combination without additional toxicity."}, "[2]": {"tested_on": "P388/CPT", "test": "Chemosensitivity of camptothecin-resistant i.p. P388/CPT leukemia, increase in life span", "assay_type": "in vivo, mice", "conditions": "for Comment: response of P388/CPT", "method": "Cross-resistance was measured in murine leukemia cell lines. P388/CPT is a camptothecin-resistant leukemia that was established in vitro (Biochem. Pharmacol., 45: 339 (1993) and maintained in vivo by i.p. passages in DBA2 female mice. The chemosensitivity of i.p. P388/CPT was evaluated with i.v. P388 sensitive reference drugs with different mechanisms of action. Antitumor efficacy was determined at the highest non-toxic dose as percent increase in life span (ILS), where:\nILS=100×[(median day of death (MDD) of treated mice)−(MDD control mice)]÷(MDD control mice)\nA minimal level of activity equals an ILS of greater than 26%. […] Table III tabulates the results from this study."}, "[3]": {"tested_on": "P388", "assay_type": "in vivo, mice", "conditions": "for %ILS: highest non-toxic dose"}, "[4]": {"tested_on": "mammary adenocarcinoma MA16/C/sp", "method": "as §1, §2, §3\nThe effect of the combination of CPT-11 and cyclophosphamide was evaluated in a three arn study in mice bearing mammary adenocarcinoma MA16/C/sp. In the first arm, four dose levels of CPT-11 were given orally on days three through seven. In the second arm, five dose levels of cyclophosphamide were given intravenously on days three, five and seven. In the combination third arm, eight dosage levels of CPT-11 were administered orally on days three through seven, with administration of eight dosage levels of cyclophosphamide intravenously on days three, five and seven. This third arm illustrated an example of semi-simultaneous administration."}, "[5]": {"tested_on": "GOS", "test": "Oral vs i.v. irinotecan, GOS tumor in B6D2F1 mice", "assay_type": "in vivo", "conditions": "for LCK: optimal total dose", "method": "as §2\n(§4) Three arms were evaluated for tolerance and efficacy.\n(§5) The optimal total dose for oral and intravenous administration routes for irinotecan alone in various murine models is indicated in Table II."}, "[6]": {"tested_on": "MA16/C", "test": "Oral vs i.v. irinotecan, MA16/C tumor in C3H/HeN mice", "assay_type": "in vivo", "conditions": "for Optimal Total Dose: days 5-9; for LCK: days 5-9, optimal total dose", "method": "as §2, §4, §5"}, "[7]": {"tested_on": "P03", "test": "Oral vs i.v. irinotecan, P03 tumor in B6D2F1 mice", "assay_type": "in vivo", "conditions": "twice daily; for LCK: optimal total dose", "method": "as §2, §4, §5"}, "[8]": {"tested_on": "C51", "test": "Oral vs i.v. irinotecan, C51 tumor in BALB/c mice", "assay_type": "in vivo", "conditions": "days 5, 7, 9, 13, 15, twice daily; for LCK: optimal total dose", "method": "as §2, §4, §5"}, "[9]": {"tested_on": "C26", "test": "Oral vs i.v. irinotecan, C26 tumor in BALB/c mice", "assay_type": "in vivo", "conditions": "for LCK: optimal total dose", "method": "as §2, §4, §5"}, "[10]": {"test": "Tolerance of oral vs i.v. irinotecan in tumor bearing mice", "assay_type": "in vivo", "conditions": "both methods of administration (oral and i.v.)", "method": "as §4"}, "[11]": {"conditions": "CPA i.v. 37.0 mg/kg/adm, days 3, 5, 7"}, "[12]": {"conditions": "CPA i.v. 60.0 mg/kg/adm, days 3, 5, 7"}, "[13]": {"conditions": "CPA i.v. 97.0 mg/kg/adm, days 3, 5, 7 (HNTD)"}, "[14]": {"conditions": "CPA i.v. 156.0 mg/kg/adm, days 3, 5, 7"}, "[15]": {"conditions": "CPT-11 p.o. 25.0 mg/kg/adm, days 3-7"}, "[16]": {"conditions": "CPT-11 p.o. 40.0 mg/kg/adm, days 3-7 (HNTD)"}}, "note": "Read-outs that look alike come from different tables or passages of the source. Marks after values point to notes of the source that are not given here.", "data": [{"smiles": "O=P1(N(CCCl)CCCl)NCCCO1", "note": "(centres unmarked) [CPA, cyclophosphamide]", "values": [{"measurement": "HNTD Dose", "setting": "[1]; cyclophosphamide, i.v. alone, days 3, 5, 7", "result": 291, "unit": "mg/kg"}, {"measurement": "LCK", "setting": "[1]; cyclophosphamide, i.v. alone, days 3, 5, 7, at HNTD", "result": 2.8}, {"measurement": "%ILS", "setting": "[2]; i.v., highest non-toxic dose", "result": 153, "unit": "%"}, {"measurement": "TFS", "setting": "[2]; i.v., highest non-toxic dose", "result": "1/5"}, {"measurement": "Comment", "setting": "[2]; i.v., listed as Cyclophosphamide", "result": "sensitive"}, {"measurement": "Comment", "setting": "[2]; i.v., listed as cyclophosphamide", "result": "very sensitive"}, {"measurement": "sensitivity of the camptothecin sensitive cell line", "setting": "[3]; i.v.", "result": "very sensitive"}, {"measurement": "%ILS", "setting": "[3]; i.v.", "result": 245, "unit": "%"}, {"measurement": "Comments", "setting": "[4]; CPA i.v. 23.0 mg/kg/adm, days 3, 5, 7", "result": "Inactive"}, {"measurement": "Comments", "setting": "[4]; [11]", "result": "Active"}, {"measurement": "Log10 cell kill", "setting": "[4]; [11]", "result": 1.0}, {"measurement": "T-C", "setting": "[4]; [11]", "result": 3.8, "unit": "days"}, {"measurement": "Time for median tumor to reach 750 mg", "setting": "[4]; [11]", "result": 12.0, "unit": "days"}, {"measurement": "Comments", "setting": "[4]; [12]", "result": "Active"}, {"measurement": "Log10 cell kill", "setting": "[4]; [12]", "result": 1.9}, {"measurement": "T-C", "setting": "[4]; [12]", "result": 6.9, "unit": "days"}, {"measurement": "Time for median tumor to reach 750 mg", "setting": "[4]; [12]", "result": 15.1, "unit": "days"}, {"measurement": "Comments", "setting": "[4]; CPA i.v. 97.0 mg/kg/adm, days 3, 5, 7", "result": "HNTD Highly Active"}, {"measurement": "Log10 cell kill", "setting": "[4]; [13]", "result": 2.8}, {"measurement": "T-C", "setting": "[4]; [13]", "result": 10.3, "unit": "days"}, {"measurement": "Time for median tumor to reach 750 mg", "setting": "[4]; [13]", "result": 18.5, "unit": "days"}, {"measurement": "Comments", "setting": "[4]; [14]", "result": "Toxic"}, {"measurement": "Log10 cell kill", "setting": "[4]; [14]", "result": "NTBA"}, {"measurement": "T-C (days)", "setting": "[4]; [14]", "result": "NTBA"}, {"measurement": "Time for median tumor to reach 750 mg in days", "setting": "[4]; [14]", "result": "NTBA"}]}, {"smiles": "CC[C@@]1(O)C(=O)OCc2c1cc1n(c2=O)Cc2cc3ccccc3nc2-1", "note": "[CPT, camptothecin]", "values": [{"measurement": "%ILS", "setting": "[2]; sc, highest non-toxic dose", "result": 0, "unit": "%"}, {"measurement": "Comment", "setting": "[2]; sc", "result": "resistant"}, {"measurement": "%ILS", "setting": "[3]; sc", "result": 82, "unit": "%"}]}, {"smiles": "CCc1c2c(nc3ccc(OC(=O)N4CCC(N5CCCCC5)CC4)cc13)-c1cc3c(c(=O)n1C2)COC(=O)[C@]3(O)CC", "note": "[CPT-11, irinotecan]", "values": [{"measurement": "Optimal Total Dose", "setting": "[5]; i.v., days 3, 5, 7 twice daily", "result": 346.2, "unit": "mg/kg"}, {"measurement": "LCK", "setting": "[5]; i.v., days 3, 5, 7 twice daily", "result": 2.2}, {"measurement": "Optimal Total Dose", "setting": "[5]; oral, days 3-7, twice daily", "result": 900, "unit": "mg/kg"}, {"measurement": "LCK", "setting": "[5]; oral, days 3-7, twice daily", "result": 2.1}, {"measurement": "HNTD Dose", "setting": "[1]; CPT-11, i.v. alone, days 3-7", "result": 200, "unit": "mg/kg"}, {"measurement": "LCK", "setting": "[1]; CPT-11, i.v. alone, days 3-7, at HNTD", "result": 2.0}, {"measurement": "Optimal Total Dose", "setting": "[6]; i.v.", "result": 130.5, "unit": "mg/kg"}, {"measurement": "LCK", "setting": "[6]; i.v.", "result": 2.6}, {"measurement": "Optimal Total Dose", "setting": "[6]; oral", "result": 230.5, "unit": "mg/kg"}, {"measurement": "LCK", "setting": "[6]; oral", "result": 2.7}, {"measurement": "Optimal Total Dose", "setting": "[7]; i.v.", "result": 346.2, "unit": "mg/kg"}, {"measurement": "LCK", "setting": "[7]; i.v.", "result": "3.2†"}, {"measurement": "Optimal Total Dose", "setting": "[7]; oral", "result": 900, "unit": "mg/kg"}, {"measurement": "LCK", "setting": "[7]; oral", "result": "3.4†"}, {"measurement": "%ILS", "setting": "[2]; i.v., highest non-toxic dose", "result": 0, "unit": "%"}, {"measurement": "Comment", "setting": "[2]; i.v.", "result": "resistant"}, {"measurement": "Optimal Total Dose", "setting": "[8]; i.v.", "result": 615, "unit": "mg/kg"}, {"measurement": "LCK", "setting": "[8]; i.v.", "result": 3.0}, {"measurement": "Optimal Total Dose", "setting": "[8]; oral", "result": 845, "unit": "mg/kg"}, {"measurement": "LCK", "setting": "[8]; oral", "result": 2.5}, {"measurement": "Optimal Total Dose", "setting": "[9]; i.v., twice daily", "result": 228, "unit": "mg/kg"}, {"measurement": "LCK", "setting": "[9]; i.v., twice daily", "result": 0.7}, {"measurement": "Optimal Total Dose", "setting": "[9]; oral, days 3-7, twice daily", "result": 558, "unit": "mg/kg"}, {"measurement": "LCK", "setting": "[9]; oral, days 3-7, twice daily", "result": 0.9}, {"measurement": "%ILS", "setting": "[3]; i.v.", "result": 91, "unit": "%"}, {"measurement": "Comments", "setting": "[4]; [15]", "result": "Active"}, {"measurement": "Log10 cell kill", "setting": "[4]; [15]", "result": 1.1}, {"measurement": "T-C", "setting": "[4]; [15]", "result": 4.1, "unit": "days"}, {"measurement": "Time for median tumor to reach 750 mg", "setting": "[4]; [15]", "result": 12.3, "unit": "days"}, {"measurement": "Comments", "setting": "[4]; CPT-11 p.o. 40.0 mg/kg/adm, days 3-7", "result": "HNTD Active"}, {"measurement": "Log10 cell kill", "setting": "[4]; [16]", "result": 2.0}, {"measurement": "T-C", "setting": "[4]; [16]", "result": 7.3, "unit": "days"}, {"measurement": "Time for median tumor to reach 750 mg", "setting": "[4]; [16]", "result": 15.5, "unit": "days"}, {"measurement": "Comments", "setting": "[4]; CPT-11 p.o. 64.0 mg/kg/adm, days 3-7", "result": "Toxic"}, {"measurement": "Comments", "setting": "[4]; mouse, in vivo, po, 103 mg/kg", "result": "Toxic"}, {"measurement": "body weight loss", "setting": "[10]", "result": 8.5, "unit": "%"}, {"measurement": "nadir", "setting": "[10]", "result": "7 days post last administration"}]}]}
